# In patent US6555580B2, “Amino- and amido-diphenyl ethers” (Bayer Aktiengesellschaft, priority 2000, dated 2003):
# Experiment: T3 promoter assay cell test (luciferase reporter under thyroid hormone-regulated promoter)
# Type: cell-based
# Details: Homo sapiens; HepG2 luciferase reporter with thyroid hormone-responsive element; costimulator retinoic acid; incubation 48 or 72 hours; four replicates
# Description: The activity of the compounds according to the invention can be tested for example in vitro by the known T3 promoter assay cell test which is described below.
# T3 Promoter Assay Cell Test
# The test is carried out with a stably transfected human HepG2 hepatocarcinoma cell which expresses a luciferase gene under the control of a thyroid hormone-regulated promoter. The vector used for the transfection has upstream of the luciferase gene a minimal thymidine kinase promoter with a thyroid hormone-responsive element (TRE) which consists of two inverted palindromes each of 12 bp and of an 8 bp spacer.
# For the test, the cell cultures are seeded in Eagle's minimal essential medium in 96-well plates with the following additions: glutamine, tricine, sodium pyruvate, nonessential amino acids, insulin, selenium and transferrin. The cultures are grown at 37° C. with a 10% CO2 atmosphere for 48 hours. In serial dilutions of test substance or reference compound (triiodothyronine=T3, thyroxine=T4) and costimulator retinoic acid are added to the test cultures and the latter are incubated as previously for a further 48 or 72 hours. Each substance concentration is tested in four replicates. To determine the luciferase induced by T3 or other substances, the cells are subsequently lysed by adding a Triton- and luciferin-containing buffer and measured immediately in a luminometer. The EC50 values for each compound are calculated (see Table 1).
row,SMILES,EC50 [nM]
1,"CCOC(=O)C(=O)Nc1cc(C)c(Oc2ccc(O)c(NC(=O)CCc3ccccc3)c2)c(C)c1 [Example 8, Ethyl (4-{4-hydroxy-3-[(3-phenylpropanoyl)amino]phenoxy}-3,5-dimethylanilino)(oxo)acetate]",20
2,"CCOC(=O)C(=O)Nc1cc(C)c(Oc2ccc(O)c(C(=O)N(C)C3CCCCC3)c2)c(C)c1 [Example 16, Ethyl [4-(3-{[cyclohexyl(methyl)amino]carbonyl}-4-hydroxyphenoxy)-3,5-dimethylanilino](oxo)acetate]",28
3,CCCN(Cc1ccccc1)Cc1cc(Oc2c(C)cc(NC(=O)C(=O)OCC)cc2C)ccc1O [Example 29],2.4
4,CCOC(=O)C(=O)Nc1cc(C)c(Oc2ccc(O)c(CN(Cc3ccccc3)Cc3ccccc3)c2)c(C)c1 [Example 54],6.7
5,CCCCCCCC(=O)N(Cc1cc(Oc2c(C)cc(NC(=O)C(=O)OCC)cc2C)ccc1O)c1ccc(F)cc1 [Example 122],55
6,CCOC(=O)C(=O)Nc1cc(C)c(Oc2ccc(O)c(NC(=O)C(C)Oc3ccc(Cl)cc3C)c2)c(C)c1 (centres unmarked) [Example 190],14
7,Cc1cc(N)cc(C)c1Oc1ccc(O)c(NC(=O)NC(C)c2ccccc2)c1 (centres unmarked) [Example 204],61
8,CCOC(=O)C(=O)Nc1cc(C)c(Oc2ccc(O)c(C(=O)NC(CC)c3ccccc3)c2)c(C)c1 (centres unmarked) [Example 260],12
